Measurements from the supplement of paper PMC10307832.

Legend:
Experiment in all cases: relative viability (nuclei count vs DMSO), 5 days (fraction); higher = more cells survive
COR-L23 = test system: COR-L23
In short: (§1)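 Each reported value is a median over duplicate plates. It expresses relative viability: treated-well nuclei count divided by vehicle-well nuclei count. Lung cancer cell lines in 1536-well plates were dosed by pin tool a day after seeding, alone with one drug or with a fixed anchor-drug dose plus five library-drug doses (not always all listed) in √10 steps, and nuclei were counted after 5 days.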

COR-L 105 = test system: COR-L 105
In short: as §1

NCI-H596 = test system: NCI-H596
In short: as §1

LCLC-103H = test system: LCLC-103H
In short: as §1

NCI-H1651 = test system: NCI-H1651
In short: as §1

SK-MES-1 = test system: SK-MES-1
In short: as §1

NCI-H1975 = test system: NCI-H1975
In short: as §1

PC-14 = test system: PC-14
In short: as §1

NCI-H2023 = test system: NCI-H2023
In short: as §1

NCI-H650 = test system: NCI-H650
In short: as §1

EPLC-272H = test system: EPLC-272H
In short: as §1

NCI-H1395 = test system: NCI-H1395
In short: as §1

CAL-12T = test system: CAL-12T
In short: as §1

NCI-H1993 = test system: NCI-H1993
In short: as §1

NCI-H2170 = test system: NCI-H2170
In short: as §1

HOP-62 = test system: HOP-62
In short: as §1

NCI-H2085 = test system: NCI-H2085
In short: as §1

A-427 = test system: A-427
In short: as §1

LXF-289 = test system: LXF-289
In short: as §1

NCI-H3122 = test system: NCI-H3122
In short: as §1

NCI-H2087 = test system: NCI-H2087
In short: as §1

NCI-H647 = test system: NCI-H647
In short: as §1

RERF-LC-KJ = test system: RERF-LC-KJ
In short: as §1

SMILES: Cc1cnc(-c2cnc(NCCNc3ccc(C#N)cn3)nc2-c2ccc(Cl)cc2Cl)[nH]1 + Cc1nc(Nc2ncc(C(=O)Nc3c(C)cccc3Cl)s2)cc(N2CCN(CCO)CC2)n1 [Dasatinib] (partner 0.075 µM)
- relative viability (COR-L23; first compound 0.253 µM): 0.419
- relative viability (COR-L23; first compound 0.8 µM): 0.51
- relative viability (COR-L23; first compound 2.53 µM): 0.5
- relative viability (COR-L 105; first compound 0.08 µM): 0.354
- relative viability (COR-L 105; first compound 0.253 µM): 0.344
- relative viability (COR-L 105; first compound 0.8 µM): 0.282
- relative viability (COR-L 105; first compound 2.53 µM): 0.208
- relative viability (NCI-H596; first compound 0.08 µM): 0.601
- relative viability (NCI-H596; first compound 0.253 µM): 0.656
- relative viability (NCI-H596; first compound 0.8 µM): 0.624
- relative viability (NCI-H596; first compound 2.53 µM): 0.607
- relative viability (LCLC-103H; first compound 0.08 µM): 0.404
- relative viability (LCLC-103H; first compound 0.253 µM): 0.442
- relative viability (LCLC-103H; first compound 0.8 µM): 0.434
- relative viability (LCLC-103H; first compound 2.53 µM): 0.433
- relative viability (NCI-H1651; first compound 0.08 µM): 0.426
- relative viability (NCI-H1651; first compound 0.253 µM): 0.436
- relative viability (NCI-H1651; first compound 0.8 µM): 0.376
- relative viability (NCI-H1651; first compound 2.53 µM): 0.355
- relative viability (SK-MES-1; first compound 0.08 µM): 0.332
- relative viability (SK-MES-1; first compound 0.253 µM): 0.425
- relative viability (SK-MES-1; first compound 0.8 µM): 0.401
- relative viability (SK-MES-1; first compound 2.53 µM): 0.247
- relative viability (NCI-H1975; first compound 0.08 µM): 0.427
- relative viability (NCI-H1975; first compound 0.253 µM): 0.336
- relative viability (NCI-H1975; first compound 0.8 µM): 0.282
- relative viability (NCI-H1975; first compound 2.53 µM): 0.241
- relative viability (PC-14; first compound 0.08 µM): 0.325
- relative viability (PC-14; first compound 0.253 µM): 0.226
- relative viability (PC-14; first compound 2.53 µM): 0.172
- relative viability (NCI-H2023; first compound 0.08 µM): 0.811
- relative viability (NCI-H2023; first compound 0.253 µM): 0.532
- relative viability (NCI-H2023; first compound 0.8 µM): 0.599
- relative viability (NCI-H2023; first compound 2.53 µM): 0.636
- relative viability (NCI-H650; first compound 0.08 µM): 0.497
- relative viability (NCI-H650; first compound 0.253 µM): 0.462
- relative viability (NCI-H650; first compound 0.8 µM): 0.511
- relative viability (NCI-H650; first compound 2.53 µM): 0.495
- relative viability (EPLC-272H; first compound 0.253 µM): 0.374
- relative viability (EPLC-272H; first compound 0.8 µM): 0.409
- relative viability (EPLC-272H; first compound 2.53 µM): 0.397
- relative viability (NCI-H1395; first compound 0.08 µM): 0.405
- relative viability (NCI-H1395; first compound 0.253 µM): 0.401
- relative viability (NCI-H1395; first compound 0.8 µM): 0.443
- relative viability (NCI-H1395; first compound 2.53 µM): 0.432
- relative viability (CAL-12T; first compound 0.08 µM): 0.523
- relative viability (CAL-12T; first compound 0.253 µM): 0.358
- relative viability (CAL-12T; first compound 0.8 µM): 0.23
- relative viability (CAL-12T; first compound 2.53 µM): 0.198
- relative viability (NCI-H1993; first compound 0.08 µM): 0.58
- relative viability (NCI-H1993; first compound 0.253 µM): 0.568
- relative viability (NCI-H1993; first compound 0.8 µM): 0.499
- relative viability (NCI-H1993; first compound 2.53 µM): 0.996
- relative viability (NCI-H2170; first compound 0.08 µM): 0.556
- relative viability (NCI-H2170; first compound 0.253 µM): 0.345
- relative viability (NCI-H2170; first compound 0.8 µM): 0.576
- relative viability (NCI-H2170; first compound 2.53 µM): 0.487
- relative viability (HOP-62; first compound 0.08 µM): 0.67
- relative viability (HOP-62; first compound 0.253 µM): 0.668
- relative viability (HOP-62; first compound 0.8 µM): 0.709
- relative viability (HOP-62; first compound 2.53 µM): 0.749
- relative viability (NCI-H2085; first compound 0.08 µM): 0.247
- relative viability (NCI-H2085; first compound 0.253 µM): 0.239
- relative viability (NCI-H2085; first compound 0.8 µM): 0.21
- relative viability (NCI-H2085; first compound 2.53 µM): 0.239
- relative viability (A-427; first compound 0.08 µM): 0.747
- relative viability (A-427; first compound 0.253 µM): 0.589
- relative viability (A-427; first compound 0.8 µM): 0.738
- relative viability (A-427; first compound 2.53 µM): 0.682
- relative viability (LXF-289; first compound 0.08 µM): 0.249
- relative viability (LXF-289; first compound 0.253 µM): 0.204
- relative viability (LXF-289; first compound 0.8 µM): 0.189
- relative viability (LXF-289; first compound 2.53 µM): 0.139
- relative viability (NCI-H3122; first compound 0.08 µM): 0.859
- relative viability (NCI-H3122; first compound 0.8 µM): 0.714
- relative viability (NCI-H3122; first compound 2.53 µM): 0.528
- relative viability (NCI-H2087; first compound 0.08 µM): 0.837
- relative viability (NCI-H2087; first compound 0.253 µM): 0.698
- relative viability (NCI-H2087; first compound 0.8 µM): 0.919
- relative viability (NCI-H2087; first compound 2.53 µM): 0.614
- relative viability (NCI-H647; first compound 0.08 µM): 0.229
- relative viability (NCI-H647; first compound 0.253 µM): 0.197
- relative viability (NCI-H647; first compound 0.8 µM): 0.179
- relative viability (NCI-H647; first compound 2.53 µM): 0.223
- relative viability (RERF-LC-KJ; first compound 0.08 µM): 0.9
- relative viability (RERF-LC-KJ; first compound 0.253 µM): 0.765
- relative viability (RERF-LC-KJ; first compound 0.8 µM): 0.796
- relative viability (RERF-LC-KJ; first compound 2.53 µM): 0.752
